Test results: patent publication US20250122169A1, “PPARG INVERSE AGONISTS AND USES THEREOF” (Flare Therapeutics Inc., priority 2021, published 2025)

Tests used:
[1] = molecular target: T1, PPARG/RXRA LBD heterodimer (Homo sapiens, UniProt P37231); assay: PPARγ-MED1 blockade assay (TR-FRET); format: biochemical; settings: for EC50: TR-FRET, MED1 LxxLL peptide, 80 nM Rosiglitazone, 3 hours; for Emax: maximal extent, GW9662 defined as 100%, DMSO 0%, read-out: % MED1 blockade relative to GW9662
T1 construct: His-TEV-Q203-Y477; Uniprot ID P37231-2; made in house; host or cells: E. coli
T1 sequence (P37231 203-477 isoform P37231-2): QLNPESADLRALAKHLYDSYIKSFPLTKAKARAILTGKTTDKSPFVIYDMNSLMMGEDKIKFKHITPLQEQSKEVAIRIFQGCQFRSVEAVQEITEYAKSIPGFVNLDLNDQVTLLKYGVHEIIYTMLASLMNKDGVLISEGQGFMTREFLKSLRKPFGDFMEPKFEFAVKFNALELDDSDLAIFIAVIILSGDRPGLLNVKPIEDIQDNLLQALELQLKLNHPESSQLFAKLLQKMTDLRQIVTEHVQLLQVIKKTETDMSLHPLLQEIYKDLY
T1 sequence (P19793 228-462 partner limits assumed): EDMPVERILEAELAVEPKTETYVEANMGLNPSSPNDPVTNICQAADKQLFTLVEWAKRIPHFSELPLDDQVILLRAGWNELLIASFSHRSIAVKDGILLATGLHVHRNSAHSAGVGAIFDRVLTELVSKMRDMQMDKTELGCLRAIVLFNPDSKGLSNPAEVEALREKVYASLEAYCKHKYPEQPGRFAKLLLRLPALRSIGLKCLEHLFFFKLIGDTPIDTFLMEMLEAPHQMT
Description: Compound potency (IC50) and maximal extent of MED1 repulsion to PPARG were assessed a TR-FRET binding assay measuring association of a biotinylated MED1 LxxLL peptide (Biotin-[…]-amide) to PPARG/RXRA LBD heterodimer.

[2] = tested on: ANGPTL4, a PPARG target gene, in HT1197 (RXRA S427F mutation) cells; assay: Bladder cancer pharmacodynamic assay, HT1197 cell assay (qPCR of PPARG target gene ANGPTL4); format: cell-based; settings: Homo sapiens, read-out: % inhibition of ANGPTL4 @ 100 nM, 100 nM compound, 24 hours, relative to DMSO control
Description: Quantitative PCR was performed using an ABI QuantStudio 7 Flex Reaction system. Data were analyzed and reported relative to DMSO control using the comparative Ct method (ΔΔCt).

[3] = molecular target: T2, PPARG/RXRA LBD heterodimer (Homo sapiens, UniProt P37231); assay: PPARγ-NCOR1 recruitment assay (TR-FRET); format: biochemical; settings: for Emax: 3 h, maximal extent, T0070907 defined as 100%, DMSO 0%, read-out: % NCOR recruitment relative to T907; for EC50: TR-FRET, NCOR1 ID2 peptide, 80 nM Rosiglitazone, 3 hours, read-out: PPARG-NCOR recruitment assay EC50
T2 construct: 2 nM WT PPARG LBD (E. coli expressed, His-TEV-Q203-Y477); fused on or other part: N-terminal His tag with TEV site on the PPARG LBD
Description: Compound potency (EC50) and maximal extent of NCOR1 recruitment to PPARG were assessed a TR-FRET binding assay measuring association of a biotinylated NCOR1 ID2 peptide (Biotin-[…]-amide) to PPARG/RXRA LBD heterodimer.
T2 sequence (O75376 2251-2273 limits assumed, one chain of several, further chain): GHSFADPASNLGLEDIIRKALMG

Row | EC50 [1] [µM] | Emax [1] [%] | Emax [3] [%] | EC50 [3] [µM] | SMILES | inhibition at 0.1 µM [2] [%]
1 | 0.01 to 0.1 | > 100 | > 100 | 0.01 to 0.1 | CN1CCN(c2c(F)cc3[nH]c(-c4cc(C#N)ncc4Cl)cc(=O)c3c2F)CC1=O [Example 24, 5-chloro-4-(5,7-difluoro-6-(4-methyl-3-oxopiperazin-1-yl)-4-oxo-1,4-dihydroquinolin-2-yl)picolinonitrile] | 87
2 | 0.01 to 0.1 | > 100 | > 100 | 0.01 to 0.1 | N#Cc1cnc(Cl)c(-c2cc(=O)c3c(F)cc(F)cc3[nH]2)c1 [Example 27, 6-chloro-5-(5,7-difluoro-4-oxo-1,4-dihydroquinolin-2-yl)nicotinonitrile] | 70
3 | < 0.01 | > 100 | > 100 | < 0.01 | CS(=O)(=O)c1cnc(C#N)cc1-c1cc(=O)c2ccc(Cl)cc2[nH]1 [Example 30, 4-(7-chloro-4-oxo-1,4-dihydroquinolin-2-yl)-5-(methylsulfonyl)picolinonitrile] | 88

The next lines start with the molecule.

Row | SMILES | EC50 [1] [µM] | Emax [1] [%] | Emax [3] [%] | EC50 [3] [µM] | inhibition at 0.1 µM [2] [%]
4 | CN(C)C(=O)[C@@H]1CCCN(c2c(F)cc3[nH]c(-c4cc(C#N)ncc4Cl)cc(=O)c3c2F)C1 [Example 22, (R)-1-(2-(5-chloro-2-cyanopyridin-4-yl)-5,7-difluoro-4-oxo-1,4-dihydroquinolin-6-yl)-N,N-dimethylpiperidine-3-carboxamide] | 0.01 to 0.1 | > 100 | > 100 | < 0.01 | 91
5 | CN(C)C(=O)[C@H]1CCCN(c2c(F)cc3[nH]c(-c4cc(C#N)ncc4Cl)cc(=O)c3c2F)C1 [Example 23, (S)-1-(2-(5-chloro-2-cyanopyridin-4-yl)-5,7-difluoro-4-oxo-1,4-dihydroquinolin-6-yl)-N,N-dimethylpiperidine-3-carboxamide] | < 0.01 | > 100 | > 100 | < 0.01 | 76
6 | CN(C)C(=O)[C@@H]1CCN(c2c(F)cc3[nH]c(-c4cc(C#N)ncc4Cl)cc(=O)c3c2F)C1 [Example 25, (R)-1-(2-(5-chloro-2-cyanopyridin-4-yl)-5,7-difluoro-4-oxo-1,4-dihydroquinolin-6-yl)-N,N-dimethylpyrrolidine-3-carboxamide] | < 0.01 | > 100 | > 100 | < 0.01 | 86
7 | CN(C)C(=O)[C@H]1CCN(c2c(F)cc3[nH]c(-c4cc(C#N)ncc4Cl)cc(=O)c3c2F)C1 [Example 26, (S)-1-(2-(5-chloro-2-cyanopyridin-4-yl)-5,7-difluoro-4-oxo-1,4-dihydroquinolin-6-yl)-N,N-dimethylpyrrolidine-3-carboxamide] | < 0.01 | > 100 | > 100 | < 0.01 | 85
8 | C[S+]([O-])c1cnc(C#N)cc1-c1cc(=O)c2c(F)cc(F)cc2[nH]1 (stereo not shown) [Example 28, 4-(5,7-difluoro-4-oxo-1,4-dihydroquinolin-2-yl)-5-(methylsulfinyl)picolinonitrile] | 0.01 to 0.1 | > 100 | > 100 | 0.01 to 0.1 | 79
9 | CS(=O)(=O)c1cnc(C#N)cc1-c1cc(=O)c2c(F)cc(Cl)cc2[nH]1 [Example 31, 4-(7-chloro-5-fluoro-4-oxo-1,4-dihydroquinolin-2-yl)-5-(methylsulfonyl)picolinonitrile] | < 0.01 | > 100 | > 100 | < 0.01 | 86
10 | CS(=O)(=O)c1ccc(C#N)nc1-c1cc(=O)c2c(F)cc(F)cc2[nH]1 [Example 32, 6-(5,7-difluoro-4-oxo-1,4-dihydroquinolin-2-yl)-5-(methylsulfonyl)picolinonitrile] | < 0.01 | > 100 | > 100 | < 0.01 | 87
11 | N#Cc1ncc(Cl)c(-c2cc(=O)c3c(F)cc(F)cc3[nH]2)n1 [Example 33, 5-chloro-4-(5,7-difluoro-4-oxo-1,4-dihydroquinolin-2-yl)pyrimidine-2-carbonitrile] | < 0.01 | > 100 | > 100 | < 0.01 | 31
